Data from PMC6366416, “Synthesis and in vitro anticancer activity of certain novel 1-(2-methyl-6-arylpyridin-3-yl)-3-phenylureas as apoptosis-inducing agents” (Journal of Enzyme Inhibition and Medicinal Chemistry, 2019).

Tests used:
SR = assay: NCI one-dose SRB growth inhibition; format: cell-based; conditions: Homo sapiens, 48 h, Leukemia, read-out: GI% SR
Summary of the method: (§1)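 Under the National Cancer Institute protocol, cultures were incubated with compound for 48 h; sulforhodamine B staining reported the remaining growth and viability.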

UACC-257 = assay: NCI one-dose SRB growth inhibition; format: cell-based; conditions: Homo sapiens, UACC-257, read-out: GI% UACC-257, Melanoma, 48 h
Summary of the method: as §1

Row | SMILES | inhibition at 10 µM (SR) [%] | inhibition at 10 µM (UACC-257) [%] | melting point [°C]
1 | Cc1nc(-c2ccc(F)cc2)ccc1NC(=O)Nc1cccc(C(F)(F)F)c1 [Compound 5a, 1-(6-(4-Fluorophenyl)-2-methylpyridin-3-yl)-3-(3-(trifluoromethyl)phenyl)urea] | > 40 | 38 | 223 to 225
2 | CCOC(=O)c1ccc(NC(=O)Nc2ccc(-c3ccc(F)cc3)nc2C)cc1 [Compound 5c, Ethyl 4-(3-(6-(4-fluorophenyl)-2-methylpyridin-3-yl)ureido)benzoate] | 16 | 29 | 209 to 211
3 | Cc1nc(-c2ccc(F)cc2)ccc1NC(=O)Nc1ccc2c(c1)OCO2 [Compound 5d, 1-(Benzo[d][1, 3]dioxol-5-yl)-3-(6-(4-fluorophenyl)-2-methylpyridin-3-yl)urea] | 11 | 15 | 254 to 256
4 | Cc1nc(-c2ccc(Cl)cc2)ccc1NC(=O)Nc1cccc(C(F)(F)F)c1 [Compound 5e, 1-(6-(4-Chlorophenyl)-2-methylpyridin-3-yl)-3-(3-(trifluoromethyl)phenyl)urea] | 41 | < 10 | 241 to 242
5 | COc1ccc(NC(=O)Nc2ccc(-c3ccc(Cl)cc3)nc2C)cc1 [Compound 5f, 1-(6-(4-Chlorophenyl)-2-methylpyridin-3-yl)-3-(4-methoxyphenyl) urea] | 28 | 26 | 264 to 265
6 | Cc1nc(-c2ccc(Cl)cc2)ccc1NC(=O)Nc1ccc2c(c1)OCO2 [Compound 5g, 1-(Benzo[d][1,3]dioxol-5-yl)-3-(6-(4-chlorophenyl)-2-methylpyridin-3-yl)urea] | 22 | 25 | 271 to 273
7 | Cc1nc(-c2cccs2)ccc1NC(=O)Nc1ccc(F)cc1 [Compound 5h, 1-(4-Fluorophenyl)-3-(2-methyl-6-(thiophen-2-yl)pyridin-3-yl)urea] | 18 | 20 | 217 to 219
8 | Cc1nc(-c2cccs2)ccc1NC(=O)Nc1ccc(Cl)cc1 [Compound 5i, 1-(4-Chlorophenyl)-3-(2-methyl-6-(thiophen-2-yl)pyridin-3-yl)urea] | < 10 | 23 | 234 to 236
9 | CCOC(=O)c1ccc(NC(=O)Nc2ccc(-c3cccs3)nc2C)cc1 [Compound 5j, Ethyl 4-(3-(2-methyl-6-(thiophen-2-yl)pyridin-3-yl)ureido)benzoate] | 44 | < 10 | 203 to 204
